Earlier results on one compound are cited in patent US11053254B2, “Crystalline forms of mitomycin C for treatment of cancer” (TRANSGENEX NANOBIOTECH, INC., priority 2018, dated 2021).

The conditions of this data set: acidic solutions with pH<6.

As for `CO[C@@]12[C@H](COC(N)=O)C3=C(C(=O)C(C)=C(N)C3=O)N1C[C@@H]1N[C@@H]12` [Mitomycin C, [(4S,6S,7R,8S)-11-amino-7-methoxy-12-methyl-10,13-dioxo-2,5-diazatetracyclo[7.4.0.0^2,7.0^4,6]trideca-1(9),11-dien-8-yl]methyl carbamate], the “degradation in acidic solutions” value is “rapid degradation”.
